Test results as given in paper PMC2832019, “In Vitro Metabolic and Mitogenic Signaling of Insulin Glargine and Its Metabolites” (PLoS ONE, 2010).

Tests used:
human IR-B = experiment: Competitive receptor binding (SPA), IR-B; conditions: for IC50: SPA, WGA PVT PEI beads, 2 µg membranes from CHO cells overexpressing IR-B, 100 pmol/L A14[^125I]-insulin, pH 7.8, 12 h, 23°C, means ± SEM, at least three times, read-out: IR-B affinity IC50; for IR-B binding, less active than human insulin: decrease relative to human insulin
Experimental: The binding of the different insulins to the human IR-A and IR-B was analyzed in a competitive binding assay using the scintillation proximity assay as previously described, [30]. […] Briefly, cells were grown to confluence and gently detached, transferred to a centrifugation tube followed by centrifugation for 10 minutes at 600×g at 4°C. The pellet was resuspended in ice-cold 2.25 STM buffer (2.25 mol/L sucrose, 5 mmol/L Tris-HCl pH 7.4, 5 mmol/L MgCl2, 1x Complete Protease Inhibitor) and disrupted using a hand-held Dounce homogenizer followed by sonication. This homogenate was transferred to a centrifugation tube, overlaid with 0.8 STM buffer (0.8 mol/L sucrose, 5 mmol/L Tris-HCl pH 7.4, 5 mmol/L MgCl2, 1x Complete Protease Inhibitor) and centrifuged for 90 minutes at 100 000×g at 4°C. The emerging pellicle at the interface was collected, transferred to a new tube and washed two times with PBS by centrifugation for 10 minutes at 1500×g. The final pellet was resuspended in a small volume of dilution buffer (50 mmol/L Tris-HCl pH 7.4, 5 mmol/L MgCl2, 1x Complete Protease Inhibitor) and homogenized with a Dounce homogenizer. These plasma membrane preparations were stored until usage at –80°C.
(§1) Binding experiments were conducted in 96-well microplates. Per well 2 µg of membranes were incubated with 0.25 mg wheat germ agglutinin polyvinyltoluene polyethylenimine SPA beads, 100 pmol/L A14[^125I]-insulin and various concentrations of unlabeled insulins in a binding buffer containing 0.05 mol/L Tris-HCl pH 7.8, 0.15 mol/L NaCl, 0.1% BSA, Complete Protease Inhibitor for 12 hours at room temperature (23°C). The radioactivity was measured at equilibrium in a microplate scintillation counter (Wallac Microbeta, Freiburg, Germany).
(§2) For each experiment, IC50 or EC50 values were obtained using the 4-parameter logistic model according to Ratkowsky and Reedy (1986). The adjustment was obtained by non-linear regression using the Levenberg-Marquardt algorithm in SAS v9.1.3 software via Biost@t-Speed V2.0-LTS internal application. If necessary, lower and upper asymptotes were set to 0 and 100, respectively.
The binding of a constant concentration of [^125I]insulin to plasma membranes from CHO cells overexpressing either IR-A or IR-B was measured in presence of increasing concentrations of unlabeled competing ligand after incubation at room temperature for 12 h. All data has been corrected for non-specific binding and are expressed as percentage of [^125I]insulin in absence of competing ligand. To analyze the insulin-stimulated activation and subsequent autophosphorylation of the insulin receptor CHO cells overexpressing the human IR-A (C) or IR-B (D) were stimulated for 15 min at 37°C with increasing concentrations of peptides, then the cells were fixed with 3.7% PFA and the amount of phosphotyrosines was analyzed via In-Cell Western. The data represent mean values ± SEM of at least 3 individual experiments measured in quadruplicate.

human IGF1R = experiment: Competitive binding, IGF1R; conditions: for IC50: [^125I]IGF-1 as radioactive ligand, means ± SEM, at least three times, read-out: IGF1R affinity IC50
Experimental: as §1, §2
(§3) Figure 4 Activity of insulin analogs on the human IGF1R and mitogenic potential in Saos-2 cells. Analysis of binding to the human IGF1R using [^125I]IGF-1 as radioactive ligand (A) and analysis of the insulin-stimulated autophosphorylation of the human IGF1R overexpressed in MEF cells (B) were done as described in figure 2 and Materials and Methods. Data are given as means ± SEM. […] Confluent cells were starved for 4 h and then incubated for 19 h with increasing concentrations of IGF-1, insulin or analog in serum free medium. [^14C]thymidine was added for further 6 h and the radioactivity measured in a Wallac Micro Scintillation counter. Data are given as means ± SEM from octuplicate sample.

Saos-2 cells = experiment: Mitogenic potency: thymidine incorporation in Saos-2 cells; type: cell-based, human; conditions: for EC50: [2-^14C]-thymidine incorporation, 19 h stimulation plus 6 h thymidine, serum-free, 37°C, octuplicate samples, means ± SEM, at least three times; for mitogenicity in words: relative to glargine and human insulin
Experimental: The human osteosarcoma cell line Saos-2 was obtained in frozen aliquots from the European Collection of Cell Cultures (ECACC, Salesbury, UK). Cells were grown in McCoy's 5a medium (Gibco, Grand Island, NY, USA) supplemented with 10% fetal calf serum (PAN Biotech GmbH, Aidenbach, Germany) and 2 mM (final) L-glutamine (Sigma Aldrich, Irvine, UK). Subconfluent cultures (9-15×10^6 cells per 225 cm^2 flask) were used to determine the mitogenic activity of the test compounds.
For measuring thymidine incorporation 40,000 cells were seeded per well of a 96-well Cytostar-T scintillation microplate (GE Healthcare, Amersham, UK) and the plates were incubated overnight at 37°C in a humidified atmosphere containing 5% CO2. The serum-containing medium was removed and replaced by 200 µL serum-free McCoy's 5a medium supplemented with 0.5% (w/v) BSA (Gibco, Grand Island, NY, USA), 2 mM L-glutamine and antibiotics (penicillin 100 units, streptomycin 100 units, amphotericin B 0.25 µg/mL final, Gibco, Grand Island, NY, USA). The plates were incubated for 4 hours at 37°C in a humidified atmosphere containing 5% CO2. 150 µL of the medium were removed and substituted by 150 µL of serum-free medium containing the different insulins or IGF-1 (Cell Sciences, Canton, MA, USA) at the indicated concentrations and the plates were incubated at 37°C in a humidified atmosphere containing 5% CO2. After 19 hours 10 µL of [2-^14C]-thymidine solution ([…], 3.7 MBq/mL) diluted in serum-free McCoy's 5a medium were added per well to yield a final concentration of 500 nCi/mL and the plates were incubated for 6 hours at 37°C in a humidified atmosphere containing 5% CO2. ^14C-thymidine incorporation was measured in a Wallac 1450 Micro Beta Trilux Scintillation counter. Dose-response curves were obtained by testing ten different concentrations of the ligands with every concentration tested by octuplicate samples.
as §2, §3

[1] = in vivo; cited from earlier work
insulin receptor = conditions: cited from earlier work
Description: Accordingly, a good correlation between the potency in insulin receptor binding, induction of autophosphorylation and stimulation of lipid synthesis has been observed for insulin analogs. […] Taken together ...

MCF10 = conditions: benign cell line; ref [15]; cited from earlier work
Description: A correlation between IGF1R autophosphorylation and cell proliferation has been recently assumed by Shukla et al., who observed an enhanced growth of the malignant cell line MCF7 after insulin glargine stimulation. The authors have observed 10% and 50% increases of cellular proliferation at 0.31 and about 15 nmol/L. This effect seemed to be linked to activation of the IGF1R and the MAPK pathway, since siRNA knockdown of IGF1R decreased the response. Unfortunately, no dose-response curve of IGF1R autophosphorylation as well as no proliferation data from siRNA knockdown of IR have ...

[2] = relative to human insulin, ref [12]

Substance | IR-B affinity less potent than human insulin (human IR-B; IR-B, relative to human insulin) [fold] | IC50 (human IR-B) [nM] | IC50 (human IGF1R) [nM] | EC50 (Saos-2 cells) [nM] | IR-B binding, less active than human insulin (human IR-B) | mitogenicity in words (Saos-2 cells) | plasma levels of metabolites [1] | IR-B binding, more potent relative to human insulin (human IR-B; relative to human insulin) [fold] | affinity towards IR and IGF1R (insulin receptor; IR and IGF1R, relative to human insulin, ref [12]) | occupancy time for the IR (insulin receptor; ref [12]) | occupancy of receptor (insulin receptor; ref [50]) | difference between human insulin and insulin glargine (MCF10) | IGF1R affinity in words (human IGF1R) | insulin receptor binding relative to human insulin (insulin receptor; [2]) [%] | dissociation rate (insulin receptor; relative to human insulin, ref [12], [51])
IGF-1: IGF-1 obtained from R&D Systems and Cell Sciences | ~300 | 171 ± 50 | 0.89 ± 0.19 | 0.22 ± 0.05 | – | – | – | – | – | – | – | – | – | – | –
[Gly^A21,Arg^B31]insulin [Glargine IM] | – | 1.08 ± 0.06 | 80 ± 10.2 | 3.75 ± 0.31 | 40–50% | reduced relative to insulin glargine | minor species only | – | – | – | – | – | – | – | –
[Asp^B10]insulin | – | 0.21 ± 0.03 | 104 ± 12.8 | 1.52 ± 0.15 | – | – | – | 2.7 | higher affinity towards both IR and IGF1R | prolonged occupancy time | prolonged occupancy | – | – | – | –
Human insulin: human insulin produced by recombinant DNA techniques or enzymatic semisynthesis | – | – | – | 12.2 ± 0.27 | – | – | – | – | – | – | – | did not show any difference | – | – | –
[Gly^A21,des-Thr^B30]insulin [Glargine M2] | – | 1.09 ± 0.06 | 427 ± 20.6 | 17.9 ± 6.5 | 40–50% | significantly less mitogenic than glargine and comparable to normal insulin | significant plasma levels | – | – | – | – | – | significantly reduced | – | –
[Gly^A21]insulin [Glargine M1] | – | 1.35 ± 0.2 | 649 ± 31.9 | 16.2 ± 2.35 | 40–50% | significantly less mitogenic than glargine and comparable to normal insulin | significant plasma levels | – | – | – | – | – | significantly reduced | 78 | –
[Gly^A21,Arg^B31,Arg^B32]insulin [Glargine] | – | 1.1 ± 0.12 | 63.2 ± 19.9 | 1.61 ± 0.26 | 40–50% | – | – | – | – | – | – | did not show any difference | – | 86 | dissociation rate similar to that of human insulin
